Tests used:
subjects with TRD = format: in vivo, human; settings: among the 76 subjects who discontinued intranasal esketamine
From the text: The efficacy and safety analyses are based on the full (IND) analysis set and the full (OP/MA) analysis set. The full (IND) analysis set is defined as all subjects who receive at least 1 dose of intranasal study medication or 1 dose of oral antidepressant in the open-label IND phase (for direct-entry and transferred-entry non-responder subjects). The full (OP/MA) analysis is defined as all subjects who receive at least 1 dose of intranasal study medication or 1 dose of oral antidepressant in the OP/MA phase. Safety variables include cognition function over time, treatment-emergent adverse events (TEAEs), including TEAEs of special interest, vital signs over time, Clinician-Administered Dissociative Symptom Scale (CADDS) over time, and Modified Observer's Assessment of Alertness/Sedation (MOAA/S) score≤3. Efficacy variables include the MADRS which consists of 10 items that cover all the core depressive symptoms: each item is scored from 0 (symptom is not present or is normal) to 6 (severe or continuous presence of the symptom). A total score (0 to 60) is calculated by summing the scores of all 10 items. A higher score represents a more severe condition.
Overall, 90.1% of subjects experienced at least one TEAE in the IND and OP/MA phases.

[1] = tested on: female Sprague-Dawley rats, PCG/RSC of the brain; experiment: 14-day repeated dose neurotoxicity study, intranasal instillation; settings: 14-day study, 54 mg/day
Method: Esketamine HCl was administered into each nostril of female rats at a volume of 50 μl per nostril either once, twice or thrice daily by intranasal instillation for 14 consecutive days at doses of 0 (vehicle), 18, 36 or 54 mg/day. At each instillation, the second nostril was dosed immediately after the first nostril. The interval between subsequent instillations into both nostrils was 5 minutes when dosed 2 or 3 times per day.
The vehicle control group received 3 subsequent intranasal instillations of the vehicle into both nostrils (50 μL per nostril) with 5-minute intervals for 14 consecutive days.
The positive control group received a single subcutaneous injection of (+)MK-801 at 48 hours prior to the necropsy of the vehicle control and esketamine HCl-treated animals.
Each group of main study animals consisted of 12 female rats. Four satellite animals were added to the esketamine HCl-dosed groups of main study animals for TK purposes. The plasma exposure to esketamine was measured in these animals on the first and the last day of dosing at various time points up to and including 24 hours after the first instillation.
Due to logistic constraints associated with the whole body perfusion procedure of the animals at necropsy, a staggered start was applied to the study. Consequently, all 5 groups of main study animals were divided into three subgroups of 4 animals each. For each of these subgroups treatment started on a different day. The perfusion procedure is the is the same as described for the single dose study.
All vehicle- and esketamine HCl-treated animals were sacrificed at 48 hours after the last instillation. […] The brain tissue of the vehicle control-, positive control- and esketamine HCl-treated rats were processed at the same time and handled in the same way in batches of 4 animals per group.
Furthermore, clinical observations were recorded for the esketamine HCl-dosed rats on the day of dosing at 0 till 5 minutes, 15 and 30 minutes, and at 1, 2, 4, 6 hours post-dose, at the end of the working day and at 24 hours after the last instillation in the single dose study and on the first day of dosing, after one week and towards the end of the dosing period in the repeated dose study. Body weight and body weight gain were measured daily. Food consumption was measured weekly in the repeated dose study.
On the day of terminal kill, a complete physical examination was performed on the rats in fasted condition and body weight was recorded. The surviving animals were anaesthetized by inhalation of an isoflurane (IsoFlo® Zoetis, Belgium)/oxygen mixture and killed by exsanguination via the carotid artery. […] All terminally killed rats or those killed pre-terminally were perfused with 4% paraformaldehyde in the single dose study and with glutaraldehyde 3% in potassium phosphate buffer 0.09 M with 1.4% sucrose in the repeated dose study.
Brain tissue was sampled and processed routinely. The trimmed and embedded tissue was sectioned and stained with hematoxylin-eosin (HE). Histoprocessing and staining were carried out in three batches of 4 animals per group (each batch thus containing 4 animals from vehicle control-, positive control- and the three esketamine HCl-treated groups). In the single dose study duplicate brain sections were stained with Fluoro-Jade (FJ).
All tissues showing gross abnormalities were examined […]. Histopathological examination was performed on 7 levels of brain tissue according to Bolon (2013. Toxicol. Pathol. 41(7), 1028-1048) from the vehicle control-, positive control-, and high dose esketamine HCl-treated groups in the single dose study, and in all groups in the repeated dose study.

[2] = tested on: patients with treatment-resistant depression (TRD); experiment: GAD-7, Example 7; format: in vivo, human
Method: Overall illness severity was assessed on the Clinical Global Impression of Severity (CGI-S) scale (Guy, “ECDEU Assessment Manual for Psychopharmacology-Revised (DHEW Publ No ADM 76-338)”, Rockville, Md.: U.S. Department of Health, Education, and Welfare, Public Health Service, Alcohol, Drug Abuse, and Mental Health Administration, NIMH Psychopharmacology Research Branch, Division of Extramural Research Programs; 1976, pp 218-222). Participants assessed their severity of anxiety on the Generalized Anxiety Disorder 7-item (GADS-7) Scale (See, Tables 157 and 15). See, Spitzer, “A brief measure for assessing generalized anxiety disorder—the GAD-7”, Arch. Intern. Med., 2006, 166(10):1092-1097.

[3] = tested on: patients with treatment-resistant depression (TRD); experiment: CADSS, Example 7; settings: human, in vivo, other: intranasal
Method: Adverse events were monitored throughout the study. Other safety assessments (i.e., laboratory tests, vital signs, physical examination) were performed at pre-specified time points. Vital signs, the Clinician Administered Dissociative States Scale (CADSS; Bremner, “Measurement of dissociative states with the clinician-administered dissociative states scale (CADSS)”, J. Traumatic Stress, 1998, 11(1):125-136), and the 4-item positive symptom subscale from the Brief Psychiatric Rating Scale (BPRS; Overall, “The Brief Psychiatric Rating Scale. Psychological Reports”, 1962, 10:799-812) were assessed pre-dose, at 40 minutes, and 2 hours post-dose.

[4] = Pharmacokinetics of esketamine nasal spray, 14 Phase 1 studies (Example 10); settings: human, plasma, inhaled or intranasal
Method: The data herein was assembled from 14 Phase 1 studies; each Phase 1 study was performed similarly to the study outlined in Example 9 in which the PK of esketamine was assessed.

[5] = tested on: elderly subjects with TRD; settings: US patients aged ≥65 years

For `CN[C@]1(c2ccccc2Cl)CCCCC1=O` [esketamine, (S)-2-(2-chlorophenyl)-2-(methylamino)cyclohexanone], the “Subjects with a discontinuation AE considered related (possibly, probably, or very likely) to esketamine” value (subjects with TRD) was 51 subjects, the “AUC-based safety margin compared with the maximum 84 mg clinical dose” value [1] was about 11 fold and the “Cmax-based safety margin compared with the maximum 84 mg clinical dose” value [1] was “approximately 17 fold”. For the same compound, the “GAD-7 LS mean difference from placebo” value ([2]; 28 mg, Period 1) was −0.21, the “GAD-7 change from baseline, LS mean” value ([2]; 28 mg, Period 1, first day to day 8) was −1.5 and the “GAD-7 change from baseline, LS mean” value ([2]; 28 mg, Period 2, first day to day 8 of period) was −1.6. The “GAD-7 LS mean difference from placebo” value ([2]; 56 mg, Period 1) was −1.40, the “GAD-7 change from baseline, LS mean” value ([2]; 56 mg, Period 1, first day to day 8) was −3.1 and the “GAD-7 LS mean difference from placebo” value ([2]; 56 mg, Period 2) was 0.60. The “GAD-7 change from baseline, LS mean” value ([2]; 56 mg, Period 2, first day to day 8 of period) was 1.0, the “GAD-7 change from baseline, LS mean” value ([2]; 84 mg, Period 1, first day to day 8) was −5.1 and the “GAD-7 change from baseline, LS mean” value ([2]; 84 mg, Period 2, first day to day 8 of period) was −0.9. For the same compound, the “Time of peak of perceptual changes/dissociative symptoms (CADSS)” value [3] was 30 to 40 min, the “Time to resolution of perceptual changes/dissociative symptoms (CADSS)” value [3] was at most 2 h and the AUC ([4]; 28 mg) was 128 to 183 ng·h/mL. For the same compound, the AUC ([4]; 56 mg) was 216 to 317 ng·h/mL, the AUC ([4]; 84 mg) was 310 to 489 ng·h/mL and the “Patients who withdrew the nasal spray” value [5] was 2 patients.

Reference: US11707440B2 (priority 2017, dated 2023)
